Results reported in patent publication US20170001990A1 (Genentech, Inc., priority 2014, published 2017).
“And” between values parts separate entries of the source, which are not always exact repeats. Equal entries are not always repeated.

What follows are compounds tested against Human recombinant carboxy-terminal his-tagged LDHA (amino acids 2-332) (Homo sapiens, UniProt P00338) (assay: LDHA enzyme inhibition assay (NADH fluorescence)). Details: LDHA IC50 (μM), 1 nM LDHA, NADH and pyruvate, stereochemistry of tested sample given.
Protocol: Test compounds were diluted in 100% DMSO with 1:3 serial dilutions. […] For the enzyme reaction, serially diluted compounds were added to a mixture of enzyme and NADH. […] Following the baseline read, pyruvate was added to the assay plates and the plates were read with excitation 340 nm and emission 480 nm for 10 minutes every 2.5 seconds. A suitable linear timeframe was selected (150-400 s) to calculate the slope of each concentration tested. The raw data were fitted to 4-parameter dose-response curves using the following equation:
fit=(A+((B−A)/(1+((C/x)̂D))))
inv=(C/((((B−A)/(y−A))−)̂(1/D)))
res=(y−fit) • where A=minimum y, B=maximum y, C=50% y max, and D=slope factor.
The curve bottom was set to the background rate (initial 5 second recording prior to addition of pyruvate) and curve top was set to no inhibitor (DMSO only) control wells rate.
The compounds of the present invention were tested for their capacity to inhibit LDHA activity and activation as described in the enzyme inhibition assay described above.

Compound	IC50
O=C1CC(c2ccsc2)(c2cccc(NCc3ccc(F)cc3)n2)NC(=O)C1Sc1ccccc1Cl (single isomer, unassigned) [Example 285, 3-((2-chlorophenyl)thio)-6-(6-((4-fluorobenzyl)amino)pyridin-2-yl)-6-(thiophen-3-yl)piperidine-2,4-dione]	0.01 µM
O=C1CC(c2ccsc2)(c2cccc(NCc3ccc(F)cc3)n2)NC(=O)C1Sc1ccccc1Cl (single isomer, unassigned) [Example 291, 3-((2-chlorophenyl)thio)-6-(6-((4-fluorobenzyl)amino)pyridin-2-yl)-6-(thiophen-3-yl)piperidine-2,4-dione]	0.093 µM
CC1CN(c2ccc(C3(c4ccsc4)CC(=O)C(Sc4ccccc4Cl)C(=O)N3)cc2)CCO1 (stereo not shown) [Example 7, 3-(2-chlorophenyl)sulfanyl-6-[4-(2-methylmorpholin-4-yl)phenyl]-6-(3-thienyl)piperidine-2,4-dione]	0.009 µM
O=C1CC(c2ccc(C3=CCCCC3)cc2)(c2ccsc2)NC(=O)C1Sc1ccccc1Cl (stereo not shown) [Example 8, 3-(2-chlorophenyl)sulfanyl-6-[4-(cyclohexen-1-yl)phenyl]-6-(3-thienyl)piperidine-2,4-dione]	0.004 µM
CN1C(=O)C(Sc2ccccc2Cl)C(=O)CC1(c1ccsc1)c1cccc(Nc2ccc(F)cc2)n1 (stereo not shown) [Example 11, 3-(2-chlorophenyl)sulfanyl-6-[6-(4-fluoroanilino)-2-pyridyl]-1-methyl-6-(3-thienyl)piperidine-2,4-dione]	0.002 µM
CN1C(=O)C(Sc2ccccc2Cl)C(=O)CC1(c1ccsc1)c1cccc(Oc2ccc(F)cc2)n1 (stereo not shown) [Example 12, 3-(2-chlorophenyl)sulfanyl-6-[6-(4-fluorophenoxy)-2-pyridyl]-1-methyl-6-(3-thienyl)piperidine-2,4-dione]	0.027 µM
CN1C(=O)C(Sc2ccccc2Cl)C(=O)CC1(c1ccsc1)c1ccccc1F (stereo not shown) [Example 13, 3-(2-chlorophenyl)sulfanyl-6-(2-fluorophenyl)-1-methyl-6-(3-thienyl)piperidine-2,4-dione]	0.058 µM
CN1C(=O)C(Sc2ccccc2Cl)C(=O)CC1(c1ccsc1)c1cccc(OC2CCOCC2)c1 (stereo not shown) [Example 23, 3-(2-chlorophenyl)sulfanyl-1-methyl-6-(3-tetrahydropyran-4-yloxyphenyl)-6-(3-thienyl)piperidine-2,4-dione]	0.026 µM
O=C1CC(c2ccsc2)(c2ccc(N3CCOCC3)c(Br)n2)NC(=O)C1Sc1ccccc1Cl (stereo not shown) [Example 25, 6-(6-bromo-5-morpholino-2-pyridyl)-3-(2-chlorophenyl)sulfanyl-6-(3-thienyl)piperidine-2,4-dione]	0.023 µM
O=C1CC(c2ccsc2)(c2ccc(N3CCOCC3)c(Nc3ccc(F)cc3)n2)NC(=O)C1Sc1ccccc1Cl (stereo not shown) [Example 26, 3-(2-chlorophenyl)sulfanyl-6-[6-(4-fluoroanilino)-5-morpholino-2-pyridyl]-6-(3-thienyl)piperidine-2,4-dione]	0.038 µM
O=C1CC(c2ccsc2)(c2ccc(N3CCOCC3)c(Oc3ccc(F)cc3)n2)NC(=O)C1Sc1ccccc1Cl (stereo not shown) [Example 27, 3-(2-chlorophenyl)sulfanyl-6-[6-(4-fluorophenoxy)-5-morpholino-2-pyridyl]-6-(3-thienyl)piperidine-2,4-dione]	0.05 µM
O=C1CC(c2ccc(OCCCO)cc2)(c2ccsc2)NC(=O)C1Sc1ccccc1Cl (stereo not shown) [Example 28, 3-(2-chlorophenyl)sulfanyl-6-[4-(3-hydroxypropoxy)phenyl]-6-(3-thienyl)piperidine-2,4-dione]	0.031 µM
COCCOc1ccc(C2(c3ccsc3)CC(=O)C(Sc3ccccc3Cl)C(=O)N2)cc1 (stereo not shown) [Example 30, 3-(2-chlorophenyl)sulfanyl-6-[4-(2-methoxyethoxy)phenyl]-6-(3-thienyl)piperidine-2,4-dione]	0.053 µM
COCCCOc1ccc(C2(c3ccsc3)CC(=O)C(Sc3ccccc3Cl)C(=O)N2)cc1 (stereo not shown) [Example 31, 3-(2-chlorophenyl)sulfanyl-6-[4-(3-methoxypropoxy)phenyl]-6-(3-thienyl)piperidine-2,4-dione]	0.008 µM
CN1C(=O)C(Sc2ccccc2Cl)C(=O)CC1(c1ccsc1)c1cccc(NC2CCOCC2)c1 (stereo not shown) [Example 34, 3-(2-chlorophenyl)sulfanyl-1-methyl-6-[3-(tetrahydropyran-4-ylamino)phenyl]-6-(3-thienyl)piperidine-2,4-dione]	0.033 µM
O=C1CC(c2ccsc2)(c2ccc(N3CCOCC3)cc2O)NC(=O)C1Sc1ccccc1Cl (stereo not shown) [Example 35, 3-(2-chlorophenyl)sulfanyl-6-(2-hydroxy-4-morpholino-phenyl)-6-(3-thienyl)piperidine-2,4-dione]	0.007 µM

More lines, now with the values ahead:

IC50	Compound
0.041 µM	COc1cc(Cc2cccc(C3(c4ccsc4)CC(=O)C(Sc4ccccc4Cl)C(=O)N3)n2)ccc1F (single isomer, unassigned) [Example 284, 3-((2-chlorophenyl)thio)-6-(6-(4-fluoro-3-methoxy-benzyl)pyridin-2-yl)-6-(thiophen-3-yl)piperidine-2,4-dione]
0.022 µM	O=C1CC(c2ccsc2)(c2cccc(OCc3ccc(F)cc3)n2)NC(=O)C1Sc1ccccc1Cl (single isomer, unassigned) [Example 289, 3-((2-chlorophenyl)thio)-6-(6-((4-fluorobenzyl)oxy)pyridin-2-yl)-6-(thiophen-3-yl)piperidine-2,4-dione]
0.037 µM	O=C1CC(c2ccsc2)(c2cccc(NCc3ccc(F)cc3)n2)NC(=O)C1Sc1ccccc1Cl (single isomer, unassigned) [Example 292, 3-((2-chlorophenyl)thio)-6-(6-((4-fluorobenzyl)amino)pyridin-2-yl)-6-(thiophen-3-yl)piperidine-2,4-dione]
0.091 µM	O=C1CC(c2ccsc2)(c2cccc(CCc3ccc(F)cc3)n2)NC(=O)C1Sc1ccccc1Cl (single isomer, unassigned) [Example 293, 3-((2-chlorophenyl)thio)-6-(6-(4-fluorophenethyl)pyridin-2-yl)-6-(thiophen-3-yl)piperidine-2,4-dione]
0.036 µM	O=C1CC(c2ccsc2)(c2cccc(CCc3ccc(F)cc3)n2)NC(=O)C1Sc1ccccc1Cl (single isomer, unassigned) [Example 294, 3-((2-chlorophenyl)thio)-6-(6-(4-fluorophenethyl)pyridin-2-yl)-6-(thiophen-3-yl)piperidine-2,4-dione]
0.063 µM	O=C1CC(c2ccsc2)(c2cccc(OCc3ccc(F)cc3)n2)NC(=O)C1Sc1ccccc1Cl (single isomer, unassigned) [Example 298, 3-((2-chlorophenyl)thio)-6-(6-((4-fluorobenzyl)oxy)pyridin-2-yl)-6-(thiophen-3-yl)piperidine-2,4-dione]
0.021 µM	COc1ccccc1Oc1cccc(C2(c3ccsc3)CC(=O)C(Sc3ccccc3Cl)C(=O)N2)n1 (single isomer, unassigned) [Example 337, 5-(2-chlorophenyl)sulfanyl-4-hydroxy-2-[6-(2-methoxyphenoxy)-2-pyridyl]-2-(3-thienyl)-1,3-dihydropyridin-6-one]
0.434 µM	C[C@H](Nc1cccc(C2(c3ccsc3)CC(=O)C(Sc3ccccc3Cl)C(=O)N2)n1)c1ccc(F)cc1 (stereo in doubt) [Example 303, 3-((2-chlorophenyl)thio)-6-(6-((1-(4-fluorophenyl)ethyl)amino)pyridin-2-yl)-6-(thiophen-3-yl) piperidine-2,4-dione]
0.012 µM	C[C@@H](CC1CC1)Oc1cccc(C2(c3ccsc3)CC(=O)C(Sc3ccccc3Cl)C(=O)N2)n1 (stereo in doubt) [Example 322, 3-((2-chlorophenyl)thio)-6-(6-((1-cyclopropyl-propan-2-yl)oxy)pyridin-2-yl)-6-(thiophen-3-yl) piperidine-2,4-dione]
0.006 µM	O=C1CC(c2ccsc2)(c2cccc(Br)n2)NC(=O)C1Sc1ccccc1Cl (stereo not shown) [Example 1, 6-(6-bromo-2-pyridyl)-3-(2-chlorophenyl)sulfanyl-6-(3-thienyl)piperidine-2,4-dione]
0.082 µM	CC(C)Oc1cccc(C2(c3ccsc3)CC(=O)C(Sc3ccccc3Cl)C(=O)N2)n1 (stereo not shown) [Example 2, 3-(2-chlorophenyl)sulfanyl-6-(6-isopropoxy-2-pyridyl)-6-(3-thienyl)piperidine-2,4-dione]
0.028 µM and 0.009 µM and 0.066 µM	O=C1CC(c2ccsc2)(c2cccc(Cc3cccc(F)c3)n2)NC(=O)C1Sc1ccccc1Cl (stereo not shown) [Example 5, 3-(2-chlorophenyl)sulfanyl-6-[6-[(3-fluorophenyl)methyl]-2-pyridyl]-6-(3-thienyl)piperidine-2,4-dione]
0.105 µM and 0.076 µM	O=C1CC(c2ccsc2)(c2cccc(OCCC3COC3)n2)NC(=O)C1Sc1ccccc1Cl (stereo not shown) [Example 16, 3-(2-chlorophenyl)sulfanyl-6-[6-[2-(oxetan-3-yl)ethoxy]-2-pyridyl]-6-(3-thienyl)piperidine-2,4-dione]
0.012 µM	O=C1CC(c2ccsc2)(c2cccc(Oc3ccccc3-c3cn[nH]c3)n2)NC(=O)C1Sc1ccccc1Cl (stereo not shown) [Example 18, 3-(2-chlorophenyl)sulfanyl-6-[6-[2-(1H-pyrazol-4-yl)phenoxy]-2-pyridyl]-6-(3-thienyl)piperidine-2,4-dione]
0.039 µM	O=C1CC(c2ccsc2)(c2cccc(OCCC3CC3(F)F)n2)NC(=O)C1Sc1ccccc1Cl (stereo not shown) [Example 20, 3-(2-chlorophenyl)sulfanyl-6-[6-[2-(2,2-difluorocyclopropyl)ethoxy]-2-pyridyl]-6-(3-thienyl)piperidine-2,4-dione]
0.119 µM	Cn1nncc1-c1ccccc1Oc1cccc(C2(c3ccsc3)CC(=O)C(Sc3ccccc3Cl)C(=O)N2)n1 (stereo not shown) [Example 21, 3-(2-chlorophenyl)sulfanyl-6-[6-[2-(3-methyltriazol-4-yl)phenoxy]-2-pyridyl]-6-(3-thienyl)piperidine-2,4-dione]
0.009 µM	O=C1CC(c2ccc(OCCO)cc2)(c2ccsc2)NC(=O)C1Sc1ccccc1Cl (stereo not shown) [Example 29, 3-(2-chlorophenyl)sulfanyl-6-[4-(2-hydroxyethoxy)phenyl]-6-(3-thienyl)piperidine-2,4-dione]
0.01 µM	O=C1CC(c2ccsc2)(c2ccc3ccccc3c2)NC(=O)C1Sc1ccccc1Cl (stereo not shown) [Example 32, 3-(2-chlorophenyl)sulfanyl-6-(2-naphthyl)-6-(3-thienyl)piperidine-2,4-dione]
